# Results: patent US20210205401A1, “SYNERGISTIC DIETARY SUPPLEMENT COMPOSITIONS FOR THE PREVENTION, TREATMENT OR CONTROL OF INFLAMMATORY DISORDERS” (LAILA NUTRACEUTICALS, priority 2014, published 2021)
# Assays:
# [1] = system: Freund's Complete Adjuvant induced arthritis model of Sprague Dawley rats; experiment: In-vivo anti-inflammatory activity of Composition-7, Freund's Complete Adjuvant induced arthritis model (Example 18); details: Composition-7 200 mg/kg body weight p.o., Prednisolone 10 mg/kg, daily for 35 days, vs CMC control
# Source text: The in-vivo anti-inflammatory activity of composition-7, comprising the water extract of 36 g of Terminalia chebula, 18 g of methanol extract of Curcuma longa, 18 g of Boswellia serrata non-acidic resin extract (BNRE), 18 g of Boswellia serrata extract standardized to 75%-85% total acids by volumetric assay which contain 5% 3-O-acetyl-11-keto-β-boswellic acid (AKBA) and 10 g of excipients [Microcrystalline cellulose (MCC) and Syloid], so that their percentages in the composition are 36%, 18%, 18%, 18% and 10% respectively was evaluated by an in-vivo study in Freund's Complete Adjuvant induced arthritis model of Sprague Dawley rats.
# Prednisolone was used as a positive control. The healthy male SD rats were selected and randomly divided into four groups containing six animals per group. The treatment group rats were supplemented daily with 200 mg/kg body weight of Composition-7 for 35 days. The positive control group was supplemented daily with Prednisolone at 10 mg/kg body weight. All supplements were diluted in 10 mL of 1% CMC for administration. The animals of control group received same volume of 1% CMC. […] Paw volumes and weight bearing capacities were respectively measured using Plethysmography equipment and Incapacitance Meter on the day of FCA injection and on 35th day of treatment. […]
# [2] = system: Freund's Complete Adjuvant induced arthritis model of Sprague Dawley (SD) rats; experiment: In-vivo anti-inflammatory activity of Composition-1, Freund's Complete Adjuvant induced arthritis model (Example 17); details: Composition-1 200 mg/kg body weight, Prednisolone 10 mg/kg, daily for 35 days, vs CMC control
# Description: The in-vivo anti-inflammatory activity of composition-1, comprising the water extract of 50 g of Terminalia chebula, 25 g of methanol extract of Curcuma longa, 25 g of Boswellia serrata non-acidic resin extract (BNRE), so that their percentages in the composition are 50%, 25% and 25% respectively was evaluated by an in-vivo study in Freund's Complete Adjuvant induced arthritis model of Sprague Dawley (SD) rats.
# Prednisolone was used as a positive control. The healthy male SD rats were selected and randomly divided into four groups containing six animals per group. The treatment group rats were supplemented daily with 200 mg/kg body weight of Composition-1 for 35 days. The positive control group was supplemented daily with Prednisolone at 10 mg/kg body weight. All supplements were diluted in 10 mL of 1% CMC for administration. The animals of control group received same volume of 1% CMC. At the 7th day, Freund's Complete Adjuvant (FCA) was injected subcutaneously in the sub-plantar region of the left hind paw of each animal. Paw volumes and weight bearing capacities were respectively measured using Plethysmography equipment and Incapacitance Meter on the day of FCA injection and on 35th day of treatment. The difference in volume of paw edema is considered as the inflammatory response. […]
smiles,measurement,setting,value
C[C@]12C=CC(=O)C=C1CC[C@@H]1[C@@H]2[C@@H](O)C[C@@]2(C)[C@H]1CC[C@]2(O)C(=O)CO [Prednisolone],% inhibition of Paw edema,[1],68.67%
same,% inhibition of Paw edema,[2],72.73%
